# Experimental data reported in PubChem BioAssay (NCI).
#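 Compound exposure: 48 hours, 5 concentrations, 96-well plates. Here, GI50 denotes the concentration required for 50% inhibition of growth. At the TGI there is no net growth.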
# Key:
# Experiment in all cases: inhibition of tumour cell growth, NCI panel, 48 h
# 786-0 renal = tested on: 786-0 renal
# CCRF-CEM leukemia = tested on: CCRF-CEM leukemia
# COLO 205 colon = tested on: COLO 205 colon
# EKVX NSCLC = tested on: EKVX NSCLC
# HCT-15 colon = tested on: HCT-15 colon
# HOP-62 NSCLC = tested on: HOP-62 NSCLC
# M14 melanoma = tested on: M14 melanoma
# MDA-MB-231 breast = tested on: MDA-MB-231 breast
# RXF 393 renal = tested on: RXF 393 renal
# SK-MEL-2 melanoma = tested on: SK-MEL-2 melanoma
# SK-MEL-28 melanoma = tested on: SK-MEL-28 melanoma
# SK-MEL-5 melanoma = tested on: SK-MEL-5 melanoma
Structure (SMILES),TGI (786-0 renal),TGI (CCRF-CEM leukemia),TGI (COLO 205 colon),TGI (EKVX NSCLC),TGI (HCT-15 colon),TGI (HOP-62 NSCLC),TGI (M14 melanoma),TGI (MDA-MB-231 breast),TGI (RXF 393 renal),TGI (SK-MEL-2 melanoma),TGI (SK-MEL-28 melanoma),TGI (SK-MEL-5 melanoma),GI50 (CCRF-CEM leukemia),GI50 (COLO 205 colon),GI50 (HOP-62 NSCLC),GI50 (M14 melanoma),GI50 (MDA-MB-231 breast),GI50 (RXF 393 renal),GI50 (SK-MEL-2 melanoma),GI50 (SK-MEL-28 melanoma)
CN1CC2=C(NC(=S)NC2c2ccccc2Cl)/C(=C/c2ccccc2Cl)C1 (stereo unspecified),> 100 µM,> 100 µM,60.4 µM,> 100 µM,> 100 µM,> 100 µM,> 100 µM,> 100 µM,> 100 µM,> 100 µM,> 100 µM,32.3 µM,–,–,–,–,–,–,–,–
CC(C(=O)n1ccnc1)N1c2ccccc2Sc2ccccc21 (stereo unspecified),> 100 µM,> 100 µM,> 100 µM,> 100 µM,> 100 µM,> 100 µM,> 100 µM,> 100 µM,> 100 µM,> 100 µM,> 100 µM,> 100 µM,–,–,–,–,–,–,–,–
CC1(C)CCCCCCCCCC2CC2CCC(C)(C)C1=O (stereo unspecified),31.5 µM,53.3 µM,32.7 µM,39.3 µM,30.1 µM,46 µM,48.6 µM,43.9 µM,29.3 µM,34.5 µM,72.8 µM,43.2 µM,–,–,–,–,–,–,–,–
Cc1ccsc1C(=S)Nc1ccc(Cl)c(/C=N/OC(C)C)c1,> 100 µM,> 100 µM,47.3 µM,> 100 µM,> 100 µM,> 100 µM,> 100 µM,> 100 µM,69.4 µM,> 100 µM,> 100 µM,75.4 µM,–,–,–,–,–,–,–,–
CCNc1nnc(-c2ccccc2Nc2ccccc2-c2nnc(NCC)s2)s1,17 µM,31.4 µM,> 53.9 µM,> 100 µM,> 45.2 µM,> 100 µM,40 µM,25.7 µM,85.8 µM,31 µM,55.2 µM,25.6 µM,–,–,–,–,–,–,–,–
CC1=CC(=O)N(n2c(-c3ccccc3)n[nH]c2=O)C1=O,> 100 µM,> 100 µM,> 100 µM,> 100 µM,> 100 µM,> 100 µM,> 100 µM,> 100 µM,> 100 µM,> 100 µM,> 100 µM,> 100 µM,–,–,–,–,–,–,–,–
C=CC1(c2ccc3ccccc3c2)OCC(CC)O1 (stereo unspecified),> 100 µM,73.7 µM,> 100 µM,> 100 µM,> 100 µM,2.48 µM,> 100 µM,0.469 µM,> 100 µM,43.9 µM,> 100 µM,> 100 µM,–,–,–,–,–,–,–,–
O=C(Nc1cccc(C(=O)NCCCO)c1)/C(=C/c1ccccc1)NC(=O)c1ccccc1,> 100 µM,> 100 µM,> 100 µM,> 100 µM,> 100 µM,> 100 µM,> 100 µM,> 100 µM,> 100 µM,> 100 µM,> 100 µM,> 100 µM,–,–,–,–,–,–,–,–
Cc1cc2c(cc1Cl)SC(NNC1=NCCN1)=NS2(=O)=O,> 10 µM,> 10 µM,> 10 µM,> 10 µM,> 10 µM,> 10 µM,> 10 µM,> 10 µM,> 10 µM,> 10 µM,> 10 µM,> 10 µM,–,–,–,–,–,–,–,–
CCC12C=CCN3CCC4(c5cc(C(c6ccc(OC)cc6)C6Cc7ccccc7N6)c(OC)cc5N(C)C4C(O)(C(=O)OC)C1O)C32 (stereo unspecified),> 100 µM,16.6 µM,27.5 µM,> 100 µM,> 100 µM,90.1 µM,> 100 µM,59.2 µM,83.1 µM,68.8 µM,> 100 µM,52 µM,–,–,–,–,–,–,–,–
O=C1CC2CC(CC3(CO3)C2)C1F (stereo unspecified),> 100 µM,> 100 µM,> 100 µM,> 100 µM,> 100 µM,> 100 µM,> 100 µM,> 100 µM,> 100 µM,> 100 µM,> 100 µM,> 100 µM,–,–,–,–,–,–,–,–
C=C1c2nc3ccccc3n2C=C(c2ccc(Cl)cc2)N1c1ccc(OCCN2CCCCC2)cc1,> 45 µM,–,> 100 µM,> 100 µM,> 45 µM,> 100 µM,> 100 µM,> 100 µM,> 100 µM,> 100 µM,> 100 µM,> 45 µM,0.226 µM,> 100 µM,> 100 µM,> 100 µM,> 100 µM,> 100 µM,> 100 µM,32.8 µM
